Patent US20250360145A1, “CSF-1R INHIBITORS AND USES THEREOF” (Myrobalan Therapeutics, Inc., priority 2022, published 2025)
Like-named read-outs stand apart in the source and are kept apart here.

Tests used:
[1] = target: CSF-1R (Homo sapiens (Human), UniProt P07333); test: Biochemical HTRF kinase assay, CSF-1R; settings: recombinant human CSF-1R;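 note: enzyme incubated with inhibitor plus a substrate and ATP mix for one hour at room temperature before HTRF detection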
[2] = tested on: EOC2 cell; test: Cell proliferation assay, EOC2; assay type: cell-based, mouse; settings: EOC2 cells, 72 hours treatment, read-out: ECO2 EC50
[3] = target: PDGFRβ (Homo sapiens (Human), UniProt P09619); test: Biochemical HTRF kinase assay, PDGFRβ; settings: for IC50: recombinant human protein, read-out: PDGFR-1β IC50; for PDGFR-1β Fold: selectivity: IC50 of PDGFR-1β as multiple of IC50 of CSF-1R;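 for all read-outs here: kinase reaction with substrate/ATP mix run 1 h at room temperature in 384-well format, HTRF signal detection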
Sequence of PDGFRβ (P09619 33-1106): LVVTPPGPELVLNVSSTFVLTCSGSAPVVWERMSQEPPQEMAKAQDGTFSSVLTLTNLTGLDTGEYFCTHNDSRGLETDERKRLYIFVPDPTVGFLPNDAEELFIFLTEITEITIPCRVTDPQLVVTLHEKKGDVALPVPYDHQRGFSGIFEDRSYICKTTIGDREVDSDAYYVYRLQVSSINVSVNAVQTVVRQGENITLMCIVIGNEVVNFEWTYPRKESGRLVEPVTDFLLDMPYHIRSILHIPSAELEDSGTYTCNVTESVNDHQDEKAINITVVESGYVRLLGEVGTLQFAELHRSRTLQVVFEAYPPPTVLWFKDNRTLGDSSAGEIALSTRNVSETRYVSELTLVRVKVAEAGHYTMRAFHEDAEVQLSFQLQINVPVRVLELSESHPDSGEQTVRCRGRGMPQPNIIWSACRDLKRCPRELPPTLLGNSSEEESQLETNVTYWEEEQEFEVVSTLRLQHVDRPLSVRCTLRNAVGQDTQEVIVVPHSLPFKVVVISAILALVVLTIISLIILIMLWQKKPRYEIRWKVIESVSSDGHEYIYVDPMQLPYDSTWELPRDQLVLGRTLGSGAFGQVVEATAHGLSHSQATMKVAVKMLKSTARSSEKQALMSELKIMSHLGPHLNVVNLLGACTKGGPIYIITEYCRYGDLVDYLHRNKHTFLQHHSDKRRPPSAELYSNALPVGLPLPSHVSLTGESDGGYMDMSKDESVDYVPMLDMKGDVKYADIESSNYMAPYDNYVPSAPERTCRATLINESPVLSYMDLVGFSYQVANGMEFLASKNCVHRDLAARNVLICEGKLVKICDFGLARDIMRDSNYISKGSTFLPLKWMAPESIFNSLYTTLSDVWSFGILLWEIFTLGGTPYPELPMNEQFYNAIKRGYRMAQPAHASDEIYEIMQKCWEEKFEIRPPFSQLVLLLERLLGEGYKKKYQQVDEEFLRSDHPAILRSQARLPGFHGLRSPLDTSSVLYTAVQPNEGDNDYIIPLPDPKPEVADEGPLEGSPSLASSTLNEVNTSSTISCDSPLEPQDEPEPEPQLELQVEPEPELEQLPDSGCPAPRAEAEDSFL

[4] = tested on: Ba/F3_CSF-1R (stably expressing human CSF-1R kinase); test: Cell proliferation assay, Ba/F3_CSF-1R; assay type: cell-based; settings: Ba/F3_CSF-1R cells, 72 hours treatment, read-out: CSF-1R BaF3 EC50
[5] = target: c-Kit (Homo sapiens (Human), UniProt P10721); test: Biochemical HTRF kinase assay, c-Kit; settings: for IC50: recombinant human protein, read-out: cKit IC50; for cKit Fold: selectivity: IC50 of cKit as multiple of IC50 of CSF-1R;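 for all read-outs here: enzyme reaction with substrate and ATP run in 384-well plates for 1 hour at room temperature, kinase activity detected by HTRF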
Sequence of c-Kit (P10721 26-976): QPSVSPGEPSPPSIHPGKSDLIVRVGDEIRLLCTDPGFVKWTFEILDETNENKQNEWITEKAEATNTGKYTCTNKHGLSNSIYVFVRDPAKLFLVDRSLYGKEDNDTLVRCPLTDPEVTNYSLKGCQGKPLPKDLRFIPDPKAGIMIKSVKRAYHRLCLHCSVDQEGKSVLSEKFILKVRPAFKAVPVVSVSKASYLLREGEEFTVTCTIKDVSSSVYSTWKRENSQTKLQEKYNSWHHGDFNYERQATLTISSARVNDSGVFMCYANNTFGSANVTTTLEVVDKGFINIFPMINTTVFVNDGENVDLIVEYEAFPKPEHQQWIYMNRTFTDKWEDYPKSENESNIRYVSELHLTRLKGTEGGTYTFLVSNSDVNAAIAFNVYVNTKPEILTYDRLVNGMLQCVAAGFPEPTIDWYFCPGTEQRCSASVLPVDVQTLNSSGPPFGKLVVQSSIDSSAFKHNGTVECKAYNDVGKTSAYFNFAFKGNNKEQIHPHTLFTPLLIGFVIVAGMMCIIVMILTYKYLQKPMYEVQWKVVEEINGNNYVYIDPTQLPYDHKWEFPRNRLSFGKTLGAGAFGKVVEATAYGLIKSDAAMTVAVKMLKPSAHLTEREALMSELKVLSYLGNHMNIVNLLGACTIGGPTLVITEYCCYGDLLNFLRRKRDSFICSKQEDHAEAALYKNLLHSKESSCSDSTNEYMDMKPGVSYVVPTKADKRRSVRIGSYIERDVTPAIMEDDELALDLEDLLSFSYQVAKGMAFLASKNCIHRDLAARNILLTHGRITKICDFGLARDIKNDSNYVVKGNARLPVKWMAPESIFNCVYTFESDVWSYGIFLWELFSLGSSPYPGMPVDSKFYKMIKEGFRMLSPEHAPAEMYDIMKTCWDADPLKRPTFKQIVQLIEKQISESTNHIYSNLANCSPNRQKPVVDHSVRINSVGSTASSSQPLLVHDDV

[6] = target: FLT3 (Homo sapiens (Human), UniProt P36888); test: Biochemical HTRF kinase assay, FLT3; settings: for IC50: recombinant human protein; for FLT3 Fold: selectivity: IC50 of FLT3 as multiple of IC50 of CSF-1R
Sequence of FLT3 (P36888 27-993): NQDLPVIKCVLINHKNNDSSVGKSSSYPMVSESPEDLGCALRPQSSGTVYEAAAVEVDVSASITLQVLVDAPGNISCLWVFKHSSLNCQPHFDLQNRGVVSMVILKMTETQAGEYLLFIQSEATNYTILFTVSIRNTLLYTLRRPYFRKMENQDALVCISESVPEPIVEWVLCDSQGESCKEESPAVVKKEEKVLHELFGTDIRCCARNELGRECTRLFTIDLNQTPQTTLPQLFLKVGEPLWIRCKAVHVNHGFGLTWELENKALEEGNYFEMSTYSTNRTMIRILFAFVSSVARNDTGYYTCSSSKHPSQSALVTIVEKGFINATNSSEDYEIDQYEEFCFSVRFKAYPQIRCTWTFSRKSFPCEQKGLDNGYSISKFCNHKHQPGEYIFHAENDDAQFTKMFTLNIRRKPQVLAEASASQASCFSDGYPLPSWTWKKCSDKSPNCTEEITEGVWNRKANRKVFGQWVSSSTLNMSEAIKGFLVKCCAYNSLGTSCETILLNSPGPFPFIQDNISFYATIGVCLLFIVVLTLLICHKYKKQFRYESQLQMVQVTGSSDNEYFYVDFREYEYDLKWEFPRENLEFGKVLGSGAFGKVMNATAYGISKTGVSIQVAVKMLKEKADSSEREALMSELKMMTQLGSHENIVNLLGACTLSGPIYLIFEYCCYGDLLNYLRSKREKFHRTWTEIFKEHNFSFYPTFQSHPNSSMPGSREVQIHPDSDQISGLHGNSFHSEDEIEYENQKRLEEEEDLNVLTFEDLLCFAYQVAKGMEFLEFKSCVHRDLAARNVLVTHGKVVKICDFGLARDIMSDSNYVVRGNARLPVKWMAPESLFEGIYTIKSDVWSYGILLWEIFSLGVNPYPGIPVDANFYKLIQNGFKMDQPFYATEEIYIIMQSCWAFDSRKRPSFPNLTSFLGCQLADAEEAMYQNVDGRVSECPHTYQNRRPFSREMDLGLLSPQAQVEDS

Sequence of CSF-1R (P07333 20-972): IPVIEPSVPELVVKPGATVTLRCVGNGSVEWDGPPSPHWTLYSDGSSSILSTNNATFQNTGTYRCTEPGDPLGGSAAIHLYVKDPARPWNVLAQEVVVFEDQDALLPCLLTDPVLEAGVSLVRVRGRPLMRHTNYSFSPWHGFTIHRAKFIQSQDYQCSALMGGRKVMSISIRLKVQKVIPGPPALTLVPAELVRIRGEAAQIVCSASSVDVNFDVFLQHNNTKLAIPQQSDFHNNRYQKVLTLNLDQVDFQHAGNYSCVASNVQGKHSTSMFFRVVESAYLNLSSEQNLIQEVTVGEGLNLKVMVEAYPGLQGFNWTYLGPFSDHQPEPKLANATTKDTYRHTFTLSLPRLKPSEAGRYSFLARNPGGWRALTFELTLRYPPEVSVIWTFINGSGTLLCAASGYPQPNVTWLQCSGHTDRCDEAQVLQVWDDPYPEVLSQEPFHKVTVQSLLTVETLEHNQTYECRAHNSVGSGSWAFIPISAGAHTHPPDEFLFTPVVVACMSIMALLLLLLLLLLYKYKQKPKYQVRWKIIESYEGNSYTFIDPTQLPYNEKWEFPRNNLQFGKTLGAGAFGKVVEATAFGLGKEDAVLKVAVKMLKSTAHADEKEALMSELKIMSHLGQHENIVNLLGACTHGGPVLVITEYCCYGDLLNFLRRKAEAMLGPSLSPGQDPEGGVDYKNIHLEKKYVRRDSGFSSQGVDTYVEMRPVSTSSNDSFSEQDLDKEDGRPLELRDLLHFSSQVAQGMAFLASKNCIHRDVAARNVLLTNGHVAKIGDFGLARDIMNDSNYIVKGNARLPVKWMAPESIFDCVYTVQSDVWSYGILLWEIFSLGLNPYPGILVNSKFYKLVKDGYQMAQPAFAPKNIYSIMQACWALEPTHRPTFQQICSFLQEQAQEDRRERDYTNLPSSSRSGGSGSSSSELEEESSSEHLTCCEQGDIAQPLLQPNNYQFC

Row | Structure (SMILES) | IC50 ([1]; Table 2) | IC50 ([1]; Table 3) | EC50 ([2]; Mus musculus, 72 h) | IC50 [3] | PDGFR-1β Fold [3] | EC50 ([4]; BaF3, 72 h) | IC50 [5] | cKit Fold [5] | IC50 [6] | FLT3 Fold [6] | EC50 [2] | EC50 [4]
1 | COc1cnc2c(Cc3cnc(OCc4cc5n(n4)CC4CC54)c(OC)c3)ccnc2c1 (centres unmarked) [Example 101] | 1.9 nM | 1.9 nM | 48.3 nM | 839 nM | >100 fold | 77.7 nM | 715 nM | >100 fold | > 1000 nM | >100 fold | – | –
2 | COc1cnc2c(Cc3cnc(OCc4ccc(C)cn4)c(OC)c3)ccnc2c1 [Example 55] | 3.2 nM | 3.2 nM | 45.4 nM | 322 nM | >100 fold | 155 nM | 785 nM | >100 fold | > 1000 nM | >100 fold | – | –
3 | COc1cnc2c(Cc3cnc(OCc4cc5n(n4)CCC5)c(OC)c3)ccnc2c1 [Example 72] | 2.2 nM | 2.2 nM | 58.9 nM | > 1000 nM | >100 fold | 74.6 nM | > 1000 nM | >100 fold | > 1000 nM | >100 fold | – | –
4 | [2H]C([2H])([2H])Oc1ccc(COc2ncc(Cc3ccnc4cc(OC)cnc34)cc2OC)nc1 [Example 78] | 6.7 nM | 6.7 nM | 48.4 nM | 947 nM | >100 fold | 143 nM | > 1000 nM | >100 fold | > 1000 nM | >100 fold | – | –
5 | COc1cnc2c(Cc3cnc(OCc4cc(C(C)C)n(C)n4)c(OC)c3)ccnc2c1 [Example 93] | 2.1 nM | 2.1 nM | 18.3 nM | > 1000 nM | >100 fold | 72.9 nM | > 1000 nM | >100 fold | > 1000 nM | >100 fold | – | –
6 | COc1cnc2c(Cc3cnc(OCc4cc(C(C)C)no4)c(OC)c3)ccnc2c1 [Example 83] | 1.2 nM | 1.2 nM | 37 nM | 158 nM | >100 fold | 26.7 nM | > 1000 nM | >100 fold | > 1000 nM | >100 fold | – | –
7 | COc1cnc2c(Cc3cnc(OCc4ccc([C@H]5CC5(F)F)cn4)c(OC)c3)ccnc2c1 (stereo in doubt) [Example 81] | 5.1 nM | 5.1 nM | – | 371 nM | 72.7 fold | – | > 1000 nM | >100 fold | > 1000 nM | >100 fold | 60.9 nM | 25.8 nM
8 | [2H]C([2H])([2H])Oc1cc(Cc2ccnc3cc(OC)cnc23)cnc1OCc1ccc(OC)cn1 [Example 74] | 3.3 nM | 3.3 nM | 33.3 nM | > 1000 nM | >100 fold | 100 nM | > 1000 nM | >100 fold | > 1000 nM | >100 fold | – | –
9 | COc1cnc2c(Cc3cnc(OCc4cc5n(n4)C[C@H](F)C5)c(OC)c3)ccnc2c1 [Example 112] | 4.7 nM | 4.7 nM | 102 nM | 874 nM | >100 fold | 168 nM | > 1000 nM | >100 fold | > 1000 nM | >100 fold | – | –
10 | COc1ccc(COc2ncc(Cc3ccnc4cc(N(C)C)cnc34)cc2OC)nc1 [Example 100, 8-((5-methoxy-6-((5-methoxypyridin-2-yl)methoxy)pyridin-3-yl)methyl)-N,N-dimethyl-1,5-naphthyridin-3-amine] | 2.2 nM | 2.2 nM | 10 nM | 378 nM | >100 fold | 17.1 nM | 875 nM | >100 fold | > 1000 nM | >100 fold | – | –
11 | COc1cnc2c(Cc3cnc(OCc4ccc(OC(F)F)cn4)c(OC)c3)ccnc2c1 [Example 56] | 2.2 nM | 2.2 nM | 31.2 nM | 312 nM | >100 fold | 131 nM | > 1000 nM | >100 fold | > 1000 nM | >100 fold | – | –
12 | COc1cnc2c(Cc3cnc(OCc4ccc(C5CC5)cn4)c(OC)c3)ccnc2c1 [Example 59] | 4.4 nM | 4.4 nM | 42.3 nM | 349 nM | 79 fold | 41.5 nM | > 1000 nM | >100 fold | > 1000 nM | >100 fold | – | –
13 | [2H]C([2H])([2H])Oc1cnc2c(Cc3cnc(OCc4ccc(OC)cn4)c(OC)c3)ccnc2c1 [Example 79] | 3.6 nM | 3.6 nM | 60.4 nM | 684 nM | >100 fold | 118 nM | > 1000 nM | >100 fold | > 1000 nM | >100 fold | – | –
14 | COc1cnc2c(Cc3cnc(OCc4ccc(C5CC5(F)F)cn4)c(OC)c3)ccnc2c1 (centres unmarked) [Example 66] | 3 nM | 3 nM | 62.7 nM | 73.6 nM | 24.5 fold | 89.1 nM | 948 nM | >100 fold | > 1000 nM | >100 fold | – | –
15 | COc1cnc2c(Cc3cnc(OCc4ccc([C@H]5CC5(F)F)cn4)c(OC)c3)ccnc2c1 (stereo in doubt) [Example 80] | 4 nM | 4 nM | – | 49 nM | 12.3 fold | 50.7 nM | 214 nM | 53.4 fold | > 1000 nM | >100 fold | 29.8 nM | –
16 | COc1ccc(COc2ncc(Cc3ccnc4cccnc34)cc2OC)nc1 [Example 15, 4-((5-methoxy-6-((5-methoxypyridin-2-yl)methoxy)pyridin-3-yl)methyl)-1,5-naphthyridine] | 9.8 nM | 9.8 nM | 253 nM | > 1000 nM | >100 fold | 437 nM | > 1000 nM | >100 fold | > 1000 nM | >100 fold | – | –
17 | COc1cnc2c(Cc3cnc(OCc4cc(C)n(C)n4)c(OC)c3)ccnc2c1 [Example 82] | 4.6 nM | 4.6 nM | 116 nM | > 1000 nM | >100 fold | 161 nM | > 1000 nM | >100 fold | > 1000 nM | >100 fold | – | –
